Data published in patent US10830763B2, “Component analysis device, drug component analysis device, component analysis method, and drug component analysis method” (Hitachi High-Technologies Corporation, priority 2015, dated 2020).

Test system: liver cells
Assay: Distribution ratio into fractions and efflux scoring of a fluorescent drug in cultured liver cells (Steps 0-6, plate reader)
Type: in vitro ADME, rat
Method: In this step, liver cells are prepared and cultured for verifying an effect of a drug. An example will be shown below. The preparation of liver cells was made according to an in-situ collagenase perfusion method. The detail is as follows. A rat (5 to 6 weeks old) is subjected to laparotomy under pentobarbital anesthesia, and a catheter is inserted into the portal vein and a pre-perfusion fluid (Hanks' solution not containing Ca2+ and Mg2+ but containing EGTA) is injected.
Liver cells prepared by the in-situ collagenase perfusion method as described above are suspended in a medium, and the liver cells in the suspension at a density of 5×10^5 cells/mL are seeded on a commercially available collagen-coated culture dish, to conduct two dimensional plane culture (for example, sandwich culture). The seeding density, medium, culture plate 001 are not particularly limited.
After seeding, culture is started using a CO2 incubator under conditions of 5% CO2 and 37° C. After 18 hours or more elapse, a first medium exchange is performed. Although a medium used for culture from 18 hours after the seeding is not particularly limited, in this example, a medium obtained by excluding FCS from a medium (10% FCS+) to make a medium (herein after medium (FCS−)) and then adding matrigel thereto was used. After that, medium exchange is performed with the medium (FCS−) every 24 hours.
In this step, cells cultured in Step 0 are conditioned to a condition suitable for a drug assessment. An example will be shown below. The culture supernatant of cells cultured for 4 days in Step 0 is removed, […] of a Hanks' solution is added as a buffer, and then incubation is performed at 37° C. for 10 minutes (FIG. 2, Step 1).
In this step, a drug solution to be assessed is administered to cells. An example will be shown below. After removing the buffer, 200 μL of 10 μM CDF (fluorescent reagent) is added to a well, incubation is performed at 37° C. for 30 minutes, the well is then retained at 4° C. for 5 minutes (FIG. 2, Step 2). […]

[1] = Pattern 1, drug incubated 37° C. 30 minutes, fluorescence measurement

ratio of the bile duct excretion drug amount relative to the whole drug amount taken in the cells (BiRD), (B1-B2)/(C1+C2) [1]: 4.92
ratio of the drug amount discharged via a transporter relative to the blood-vessel-side discharge drug amount (RexEMTP), (B2-B3)/B2 [1]: 52.52
sup fraction (first blood-vessel-side discharge fraction, S1) (Pattern 2: total sum of Steps 4, 5 and 6 taken as 100%, Step 4 Hanks' solution 37° C. 30 minutes, in %): 39.29
Substance: Rhodamine 123
